Data as given in US4629739A, “Substituted sulfonamidobenzamides and method of treating arrhythmias” (priority 1985, dated 1986).
Entries after “also recorded” stand apart in the source; their conditions may differ. Read-outs that look alike come from different tables or passages of the source.

Columns and labels:
arrhythmia [1] = test: therapeutic dose; conditions: in vivo
cardiac tissue [2] = test: conduction and refractoriness in the cardiac tissue
cardiovascular function [3] = test: cardiovascular / hemodynamic depression in vivo; conditions: doses 10 to 30 times the therapeutic dose (1-3 mg/kg)
local anesthetic action = conditions: doses up to 50-100 times the concentration which prolongs action potential duration by 20%
[4] = system: ganglionic and vagal transmission; test: effects on ganglionic and vagal transmission; assay type: in vivo; conditions: doses up to 10 mg/kg (i.e., 3-10 times the effective dose)
[5] = system: re-entrant ventricular tachycardia; test: model of re-entrant ventricular tachycardia in dogs; assay type: in vivo, dog; conditions: anesthetized dogs; times more potent than acecainide
[6] = system: canine cardiac Purkinje fibers; test: action potential duration and upstroke by standard electrophysiological techniques in normal canine Purkinje fibres; assay type: cell-based
Excerpt: The action of the compounds of this invention is attributed to their ability to prolong the action potential of the cardiac tissue. Therefore, they are Class III antiarrhythmic agents within the Vaughan-Williams classification of antiarrhythmic agents. Such activity has been analyzed in several procedures, for instance, utilizing standard electrophysiological techniques to measure resting potential, action potential amplitude, duration, rate of rise and refractory periods of normal canine Purkinje fibres; and also utilizing re-entrant arrhythmias induced by programmed electrical stimulation in the conscious dog.

cardiovascular function [7] = conditions: cited from earlier work; for depression of cardiac function: Class I drugs; for cardiovascular / hemodynamic depression in vivo: doses approximating the therapeutic dose
cardiac tissue [8] = conditions: cited from earlier work; for effect on conduction: known drugs
cardiac action potential = conditions: in vitro; Goodman & Gilman, 6th Ed., 1980, pg. 768; cited from earlier work
man = conditions: cited from earlier work; for drug induced lupus erythematosis: in man
arrhythmia [9] = conditions: cited from earlier work
[10] = system: ganglionic and vagal transmission; conditions: in vivo; literature; cited from earlier work
[11] = cited from earlier work

Compound	therapeutic dose (arrhythmia [1])	conduction disturbances in the heart / effect on conduction (cardiac tissue [2])	cardiovascular depression in vivo (cardiovascular function [3])	local anesthetic action (local anesthetic action)	effects on ganglionic or vagal transmission [4]	potency relative to acecainide in a model of re-entrant ventricular tachycardia [5]	effect on action potential duration [6]	effect on action potential upstroke [6]	depression of cardiac function (cardiovascular function [7])	effect on conduction (cardiac tissue [8])	cardiovascular / hemodynamic depression in vivo (cardiovascular function [7])	drug induced lupus erythematosis (man)	other results
CS(=O)(=O)Nc1ccc(C(=O)NCCNCc2ccccc2)cc1.Cl [4-[(Methylsulfonyl)amino]-N-[2-((phenylmethyl)amino)ethyl]benzamide hydrochloride]	1 to 3 mg/kg	no conduction disturbances in the heart	no evidence for cardiovascular depression	No local anesthetic action	nor is there any evidence for effects on ganglionic or vagal transmission	10 times	prolong action potential duration	without slowing the action potential upstroke (it may be increased)	–	–	–	–	–
CC(C)N(CCC(C(N)=O)(c1ccccc1)c1ccccn1)C(C)C (stereo not shown) [disopyramide]	–	–	–	–	–	–	–	–	depress cardiac function	slowing conduction	–	–	–
CCCCCCCNCCNC(=O)c1ccc(NS(C)(=O)=O)cc1.Cl [N-[2-(Heptylamino)ethyl]-4-[(methylsulfonyl)amino]benzamide hydrochloride]	1 to 3 mg/kg	no conduction disturbances in the heart	no evidence for cardiovascular depression	No local anesthetic action	nor is there any evidence for effects on ganglionic or vagal transmission	10 times	prolong action potential duration	without slowing the action potential upstroke (it may be increased)	–	–	–	–	–
C=C[C@H]1C[N@@]2CC[C@H]1C[C@@H]2[C@@H](O)c1ccnc2ccc(OC)cc12 [quinidine]	–	–	–	–	–	–	–	–	depress cardiac function	slowing conduction	–	–	–
CCN(CC)CCNC(=O)c1ccc(N)cc1 [procainamide]	–	–	–	–	–	–	–	–	depress cardiac function	slowing conduction	causes cardiovascular depression; also recorded: causes such depression at doses approximating the therapeutic dose	drug induced lupus erythematosis	level showing significant mutagenic potential (Ames Test) (bacteria (Ames Test)): ≤ 0.2 mg/plate; effect on action potential duration (cardiac action potential): prolongs action potential duration; effect on action potential upstroke (cardiac action potential): slows action potential upstroke; therapeutic dose (arrhythmia [9]; in vivo, literature): 20 to 40 mg/kg; ganglionic and vagal transmission [10]: blocks ganglionic and vagal transmission
CCN(CC)CCNC(=O)c1ccc(NC(C)=O)cc1 [acecainide]	–	–	–	–	–	–	–	–	–	little effect on conduction of the cardiac action potential	causes such depression at doses approximating the therapeutic dose	shown to cause lupus	mutagenic activity relative to procainamide (Ames Test) (bacteria (Ames Test)): one-half as active; incidence of lupus relative to procainamide (man; versus procainamide): significantly lower than for procainamide; antiarrhythmic activity (arrhythmia [9]; reported): antiarrhythmic activity; prolongation of refractoriness (cardiac tissue [8]; known drug): does prolong refractoriness; deacetylation in man [11]: deacetylated in man
